Read-outs that look alike come from different tables or passages of the source.
Experiments:
[1] = test system: subjects with mixed dyslipidemia; conditions: 8 weeks, cited from earlier work
[2] = Exposure study in hepatic impairment (Child-Pugh classes B and C); format: in vivo, human; conditions: subjects with significant hepatic impairment
Description: These amounts represent an average daily dose, and not necessarily an amount given at a single dose. Dosing may be as frequent as more than once/day (where the amount, or daily dose, will be divided between the number of administrations per day), but will more typically be once/day (where the amount is given in a single administration). Optionally, particularly in cases of significant hepatic impairment, the dosing may be less frequent than once/day, such as between once/week and every other day, for example once/week, twice/week (especially with the doses at least three days apart), three times/week (especially with the doses at least two days apart), or every other day; so that, as an example, a subject may receive 5 mg twice/week for an amount (daily dose) of 1.4 mg/day.

[3] = test system: subjects with PBC; assay: High dose trial in PBC (NCT02609048); format: in vivo, human; conditions: for cases of asymptomatic increases in transaminases: reversible on cessation of treatment, no elevation of TBIL; for mean decrease from baseline in ALP: last observation carried forward, at least two weeks of treatment; for reduction of LDL-C: after two weeks of dosing
Description: The trial subjects were adult, male or female, with a diagnosis of PBC by at least two of the following three criteria: (a) a history of alkaline phosphatase (ALP) above the upper limit of normal (ULN) for at least six months, (b) positive anti-mitochondrial antibody titers >1/40 on immunofluorescence or M2 positive by enzyme linked immunosorbent assay or positive PBC-specific antinuclear antibodies, and (c) documented liver biopsy result consistent with PBC, on a stable and recommended dose of UDCA for the past twelve months or UDCA intolerant, and ALP≥1.67×ULN. Exclusion criteria included AST or ALT≥3×ULN, total bilirubin (TBIL)≥2×ULN, autoimmune hepatitis or a history of chronic viral hepatitis, PSC, the current use of fibrates or simvastatin, the use of colchicine, methotrexate, azathioprine, or systemic steroids in the previous two months, the use of an experimental treatment for PBC, and the use of an experimental or unapproved immunosuppressant. The primary study endpoint was decrease in ALP, and the secondary endpoint was the responder rate for subjects achieving ALP<1.67×ULN and total bilirubin within normal limit, and >15% decrease in ALP. Additional secondary endpoints were changes in GGT, TBIL, and 5′-nucleotidase, which are other recognized biochemical markers of cholestasis. […] During the study, three cases of asymptomatic increases in transaminases were observed (two in the 200 mg and one in the 50 mg groups). All three were reversible on cessation of treatment and were not accompanied by elevation of TBIL. Since the study had already shown a clear efficacy signal, the study was discontinued. […] According to the original statistical plan, changes in ALP were calculated using the last observation carried forward. The mean decreases from baseline in ALP for the 50 mg/day and 200 mg/day dose groups were 57% and 62%, respectively, compared with 0.37% for placebo (p<0.0001 for both). The responder rates for the placebo, 50 mg/day, and 200 mg/day groups were 10%, 67% and 100%, respectively, despite the baseline ALP levels being different at 239, 313, and 280 U/L. The p-values comparing the responder rates for the 50 mg/day and 200 mg/day groups with placebo were 0.020 and 0.0004 (Fisher's Exact Test), respectively.

[4] = Preclinical study of elimination; format: in vivo
[5] = test system: subjects with an intrahepatic cholestatic disease such as PSC; assay: Trial in PSC; format: in vivo, human; conditions: 1, 2, 5, and 10 mg/day oral
Protocol: Subjects are permitted their usual other medications, including UDCA. […] At each visit, after a 12-hour fast, blood is drawn and urine collected; and a standard metabolic panel, complete blood count, and standard urinalysis are performed. Blood is analyzed for TC, HDL-C, TG, VLDL-C, LDL-C, and apolipoprotein B, for liver function markers such as total and bone-specific ALP, for GGT, and also for total and conjugated bilirubin. The subjects also maintain health diaries, which are reviewed at each visit.

[6] = test system: subjects with PBC; assay: Low-dose trial in PBC (NCT02955602); format: in vivo, human
Protocol: In the main study, running for 12 weeks, subjects were to receive either 2, 5, or 10 mg/day; while in an extension study, running for an additional 40 weeks, subjects in the 2 mg/day group were allowed to continue at the 2 mg/day dose or shift to either 5 or 10 mg/day, subjects in the 5 mg/day group were allowed to continue at the 5 mg/day dose or shift to 10 mg/day, and subjects in the 10 mg/day group were allowed to continue at the 10 mg/day dose or shift to 5 mg/day. At baseline (the mean of the screening values and the value at day 1), the subjects had the following values, with numbers in parentheses denoting standard deviations: The study has now been analyzed through 26 weeks: the 12 weeks of the main study and 14 weeks of the extension study.

[7] = biological target: T1, PPARα (Homo sapiens, UniProt Q07869); conditions: PPARδ vs PPARα; cited from earlier work
T1 sequence (Q07869 1-468): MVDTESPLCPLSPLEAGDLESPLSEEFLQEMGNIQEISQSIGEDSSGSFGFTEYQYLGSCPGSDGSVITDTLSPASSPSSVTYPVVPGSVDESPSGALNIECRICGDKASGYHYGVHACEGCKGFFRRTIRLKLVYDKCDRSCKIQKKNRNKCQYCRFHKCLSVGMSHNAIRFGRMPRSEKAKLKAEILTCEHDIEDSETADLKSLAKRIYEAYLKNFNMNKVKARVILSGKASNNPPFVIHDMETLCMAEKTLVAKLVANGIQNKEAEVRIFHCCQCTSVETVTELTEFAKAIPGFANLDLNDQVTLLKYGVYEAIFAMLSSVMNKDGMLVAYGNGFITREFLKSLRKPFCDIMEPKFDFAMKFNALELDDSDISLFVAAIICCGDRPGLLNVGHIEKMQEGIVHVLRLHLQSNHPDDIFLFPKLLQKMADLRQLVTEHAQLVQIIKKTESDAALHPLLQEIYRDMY

[8] = seladelpar 50 or 100 mg alone or combined with ATV 20 mg, once daily oral, compared to placebo
[9] = combined 5 mg/day and 5 to 10 mg/day group, 26 weeks
[10] = through 26 weeks, 2, 5, 10 mg/day

CC(C)c1c(C(=O)Nc2ccccc2)c(-c2ccccc2)c(-c2ccc(F)cc2)n1CC[C@@H](O)C[C@@H](O)CC(=O)O [ATV, atorvastatin, reference compound]
increase of GGT ([1]; ATV 20 mg group): 2% | reduction of ALP ([1]; ATV 20 mg group): 6%

CCO[C@H](COc1ccc(C(F)(F)F)cc1)CSc1ccc(OCC(=O)O)c(C)c1 [seladelpar, [4-({(2R)-2-ethoxy-3-[4-(trifluoromethyl)phenoxy]propyl}sulfanyl)-2-methylphenoxy] acetic acid]
area-under-the-curve exposure for seladelpar and two of its three principal metabolites [2]: increase | maximum plasma concentration of seladelpar [2]: significant increase | cases of asymptomatic increases in transaminases ([3]; 50 mg group): one | responder rate (ALP<1.67×ULN, total bilirubin within normal limit, >15% decrease in ALP) ([3]; 50 mg/day): 67% | mean decrease from baseline in ALP ([3]; 50 mg/day oral): 57% | reduction of LDL-C ([3]; 50 mg/day): 16% | cases of asymptomatic increases in transaminases ([3]; 200 mg group): two | responder rate (ALP<1.67×ULN, total bilirubin within normal limit, >15% decrease in ALP) ([3]; 200 mg/day): 100% | mean decrease from baseline in ALP ([3]; 200 mg/day oral): 62% | reduction of LDL-C ([3]; 200 mg/day): 26% | adverse events of pruritus ([3]; on treatment, 50 and 200 mg/day): no adverse events of pruritus were reported on treatment | reduction of LDL [1, 8]: 18-43% | reduction of apolipoprotein B-100 [1, 8]: 20-38% | reduction of free fatty acids [1, 8]: 16-28% | reduction of high-sensitivity C-reactive protein (hs-CRP) [1, 8]: 43-72% | reduction of non-HDL-C [1, 8]: 18-41% | reduction of triglycerides (TGs) [1, 8]: 26-30% | rise of HDL-C [1, 8]: 1-12% | number of patients with the metabolic syndrome and a preponderance of small LDL particles ([1]; seladelpar alone and in combination with ATV): reduced the number of patients with the metabolic syndrome and a preponderance of small LDL particles | reduction of ALP ([1]; seladelpar groups): 32-43% | reduction of GGT ([1]; seladelpar groups): 24-28% | concentration of the drug in bile [4]: concentrated in bile | main route of elimination [4]: through bile | improvement in disease, manifested by decrease in ALP and GGT [5]: improvement in their disease | mean reduction in ALP ([6]; 2 mg/day, 12 weeks): 21% | mean reduction in ALT ([6]; 2 mg/day, 12 weeks): 9% | mean reduction in ALP ([6]; 5 mg/day, 12 weeks): 33% | mean reduction in ALT ([6]; 5 mg/day, 12 weeks): 28% | mean reduction in ALP ([6]; 5 mg/day, 26 weeks): 45% | mean reduction in ALT ([6]; 10 mg/day group, 26 weeks): 43% | subjects with ALP≤1.67×ULN ([6]; 10 mg/day group, 26 weeks): 79% | subjects with ALP≤ULN ([6]; 10 mg/day group, 26 weeks): 32% | subjects with TBIL≤ULN ([6]; 10 mg/day group, 26 weeks): 89% | subjects with a decrease in ALP of ≥15% ([6]; 10 mg/day group, 26 weeks): 89% | mean reduction in ALP ([6]; 10 mg/day, 12 weeks): 45% | mean reduction in ALT ([6]; 10 mg/day, 12 weeks): 35% | mean reduction in ALP ([6]; 10 mg/day, 26 weeks): 43% | mean reduction in ALP ([6]; 5 to 10 mg/day, 26 weeks): 43% | mean reduction in ALT [6, 9]: 40% | subjects with ALP≤1.67×ULN [6, 9]: 68% | subjects with ALP≤ULN [6, 9]: 26% | subjects with TBIL≤ULN [6, 9]: 95% | subjects with a decrease in ALP of ≥15% [6, 9]: 95% | signals for drug-induced pruritus [6, 10]: no signals for drug-induced pruritus | transaminase safety signals [6, 10]: No transaminase safety signals | serious adverse events ([6]; through 26 weeks, all doses, all deemed unrelated to seladelpar): 6 | adverse events leading to seladelpar discontinuation ([6]; through 26 weeks, all doses, both deemed unrelated to seladelpar): 2 | specificity compared with PPARα [7]: > 600 fold

— patent publication US10813896B2, “Treatment of intrahepatic cholestatic diseases” (CymaBay Therapeutics, Inc., priority 2017, dated 2020)
